Results on two compounds are retold here after patent US7208290B2, “Methods of co-expressing umami taste receptors and chimeric Gα15 variants” (Senomyx, Inc., priority 2002, dated 2007).

This test concerns the target T1, rat T1R1/T1R3 umami taste receptor (Rattus norvegicus, UniProt Q9Z0R8).
T1 construct: expressed in transfected cells; host or cells: HEK-293 cells, transient transfection, pEAK10 expression vector
T1 sequence (Q9Z0R8 20-840): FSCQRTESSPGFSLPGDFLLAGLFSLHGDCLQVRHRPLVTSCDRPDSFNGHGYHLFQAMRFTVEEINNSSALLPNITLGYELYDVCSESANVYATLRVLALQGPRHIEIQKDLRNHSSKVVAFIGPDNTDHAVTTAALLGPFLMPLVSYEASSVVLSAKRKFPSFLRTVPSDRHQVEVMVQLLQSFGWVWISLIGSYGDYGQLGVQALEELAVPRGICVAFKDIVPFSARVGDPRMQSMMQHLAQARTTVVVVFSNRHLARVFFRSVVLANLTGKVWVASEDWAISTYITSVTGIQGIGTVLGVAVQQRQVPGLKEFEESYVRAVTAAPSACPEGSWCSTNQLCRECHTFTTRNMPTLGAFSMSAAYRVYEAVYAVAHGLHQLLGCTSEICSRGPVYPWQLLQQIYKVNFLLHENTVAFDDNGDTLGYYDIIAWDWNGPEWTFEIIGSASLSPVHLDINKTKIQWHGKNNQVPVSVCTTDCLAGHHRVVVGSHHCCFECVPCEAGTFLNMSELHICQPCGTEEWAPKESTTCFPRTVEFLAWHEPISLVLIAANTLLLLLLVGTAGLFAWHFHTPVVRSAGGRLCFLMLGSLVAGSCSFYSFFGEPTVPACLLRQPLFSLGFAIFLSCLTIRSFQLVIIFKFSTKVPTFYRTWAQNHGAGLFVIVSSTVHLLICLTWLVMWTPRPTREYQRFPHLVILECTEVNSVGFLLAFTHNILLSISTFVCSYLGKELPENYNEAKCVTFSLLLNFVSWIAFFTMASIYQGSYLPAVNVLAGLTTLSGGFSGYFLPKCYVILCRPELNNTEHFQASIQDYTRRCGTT
T1 sequence (Q923K1 21-858 partner): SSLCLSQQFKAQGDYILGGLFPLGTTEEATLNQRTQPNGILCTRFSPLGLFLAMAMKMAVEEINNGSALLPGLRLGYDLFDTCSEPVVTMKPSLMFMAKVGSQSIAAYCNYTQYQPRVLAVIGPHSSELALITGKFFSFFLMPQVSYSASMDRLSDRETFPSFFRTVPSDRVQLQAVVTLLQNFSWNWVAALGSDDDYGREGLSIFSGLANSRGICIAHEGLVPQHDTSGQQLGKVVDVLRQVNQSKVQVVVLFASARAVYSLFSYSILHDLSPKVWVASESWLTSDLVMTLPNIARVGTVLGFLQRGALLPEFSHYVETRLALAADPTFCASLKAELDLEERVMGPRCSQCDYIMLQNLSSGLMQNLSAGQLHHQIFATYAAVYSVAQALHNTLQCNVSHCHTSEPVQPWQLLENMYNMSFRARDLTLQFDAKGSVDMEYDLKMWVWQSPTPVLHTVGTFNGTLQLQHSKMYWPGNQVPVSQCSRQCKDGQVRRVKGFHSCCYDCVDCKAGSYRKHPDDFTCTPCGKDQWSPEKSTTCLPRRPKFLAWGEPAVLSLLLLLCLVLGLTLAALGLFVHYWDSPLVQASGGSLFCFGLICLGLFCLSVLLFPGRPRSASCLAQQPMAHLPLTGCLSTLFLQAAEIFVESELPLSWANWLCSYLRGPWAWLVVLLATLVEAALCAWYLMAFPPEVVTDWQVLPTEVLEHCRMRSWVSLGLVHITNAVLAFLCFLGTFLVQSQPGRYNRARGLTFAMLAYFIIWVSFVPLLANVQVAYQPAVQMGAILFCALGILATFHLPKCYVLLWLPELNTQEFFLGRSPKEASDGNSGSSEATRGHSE
The test can be described thus: calcium imaging in HEK-293 cells transiently transfected with rat T1R1, T1R3 and Gα15 or Gα15/i1. Format: cell-based. The conditions noted are these: HEK-293 transiently transfected with rat T1R1, T1R3 and Gα15/i1; in the presence of 2.5 mM IMP. The protocol: Rat T1R2 and T1R3 expression constructs were generated using the pEAK10 expression vector (Edge Biosystems). (Rat T1R1, T1R2, and T1R3 nucleic acid sequences are described in U.S. Provisional Application No. 60/339,472, incorporated by reference in its entirety herein). HEK-293 cells were grown and maintained at 37° C. in Dulbecco's Modified Eagle Medium (DMEM) supplemented with 10% FBS and MEM non-essential amino acids (Gibco BRL). For calcium-imaging experiments, cells were first seeded onto 24-well tissue-culture plates (approximately 100,000 cells per well), and transfected using Mirus Translt-293 (PanVera). Transfection efficiencies, which were estimated by cotransfection with an RFP expression vector, were typically approximately 70%. […] Calcium mobilization was monitored on an Axiovert S100 microscope equipped with an inverted 10×/0.5 LWD piano fluor objective (Zeiss) and a cooled CCD camera (Princeton Instruments). Fluorescence images were acquired at 480 nm excitation and 535 nm emission, and analyzed with Imaging Workbench 4.0 software (Axon Instruments). T1R receptor activity was quantitated by counting the number of responding cells 30 seconds after stimulus addition. […]

Molecules are shown by their SMILES.

Turning to `N[C@@H](CC(=O)O)C(=O)O` [L-aspartate], the “response of cells (intracellular calcium increase, number of responding cells) to umami taste stimuli” value is reported as “responded”.

Turning to `N[C@@H](CCC(=O)O)C(=O)O` [L-glutamate], the “response of cells (intracellular calcium increase, number of responding cells) to umami taste stimuli” value is listed as “responded”.
